Measurements from ChEMBL document CHEMBL5131478, “3,5-Bis(trifluoromethyl)phenylsulfonamides, a novel pancreatic cancer active lead. Investigation of the terminal aromatic moiety” (Bioorg Med Chem Lett, 2022).

test system: MIA PaCa-2; assay: Growth inhibition of human MIA PaCa-2 cells incubated for 72 hrs by MTT assay; assay type: functional

| Structure (SMILES) | GI50 [µM] |
| --- | --- |
| O=S(=O)(NCCCCCCNCc1ccc(Br)cc1)c1ccccc1Cl | 13.7 |
| CC(C)c1ccc(S(=O)(=O)NCCCCCCNCc2ccc(Br)cc2)cc1 | 5.73 |
| O=[N+]([O-])c1ccccc1S(=O)(=O)NCCCCCCNCc1ccc(Br)cc1 | 11.7 |
| O=S(=O)(NCCCCCCNCc1ccc(Br)cc1)c1ccccc1F | 13.3 |
| O=S(=O)(NCCCNCc1cccc(Cl)c1)c1cc(C(F)(F)F)cc(C(F)(F)F)c1 | 4.4 |
| O=S(=O)(NCCCNCc1ccc(Cl)c(Cl)c1)c1cc(C(F)(F)F)cc(C(F)(F)F)c1 | 2.7 |
| O=S(=O)(NCCCCCCNCc1ccc(Br)cc1)c1cccc(C(F)(F)F)c1 | 5.97 |
| COc1ccc(CNCCCNS(=O)(=O)c2cc(C(F)(F)F)cc(C(F)(F)F)c2)cc1 | 2.5 |
| Cc1ccc(S(=O)(=O)NCCCCCCNCc2ccc(Br)cc2)cc1 | 12.3 |

Results, then the compound that gave them:

| GI50 [µM] | Structure (SMILES) |
| --- | --- |
| 12 | Cc1ccc(C)c(S(=O)(=O)NCCCCCCNCc2ccc(Br)cc2)c1 |
| 5.7 | CCCCc1ccc(S(=O)(=O)NCCCCCCNCc2ccc(Br)cc2)cc1 |
| 26 | O=S(=O)(NCCNCc1cccc2ccccc12)c1cc(C(F)(F)F)cc(C(F)(F)F)c1 |
| 2.8 | O=S(=O)(NCCCNCc1ccc(Cl)cc1)c1cc(C(F)(F)F)cc(C(F)(F)F)c1 |
| 2.97 | O=S(=O)(NCCCCCCNCc1ccc(Br)cc1)c1cc(C(F)(F)F)cc(C(F)(F)F)c1 |
| 2.6 | O=S(=O)(NCCCNCC1COc2ccccc2O1)c1cc(C(F)(F)F)cc(C(F)(F)F)c1 (configuration not stated) |
| 2.97 | CC(C)(C)c1ccc(S(=O)(=O)NCCCCCCNCc2ccc(Br)cc2)cc1 |
| 2.8 | O=S(=O)(NCCCNCc1cccc2ccccc12)c1cc(C(F)(F)F)cc(C(F)(F)F)c1 |

test system: HT-29; assay: Growth inhibition of human HT-29 cells incubated for 72 hrs by MTT assay; assay type: functional

| Structure (SMILES) | GI50 [nM] |
| --- | --- |
| O=S(=O)(NCCCNCc1cccc(Cl)c1)c1cc(C(F)(F)F)cc(C(F)(F)F)c1 | 14000 |
| O=S(=O)(NCCCNCc1ccc(Cl)c(Cl)c1)c1cc(C(F)(F)F)cc(C(F)(F)F)c1 | 4700 |
| COc1ccc(CNCCCNS(=O)(=O)c2cc(C(F)(F)F)cc(C(F)(F)F)c2)cc1 | 2900 |

Continued, values first:

| GI50 [nM] | Structure (SMILES) |
| --- | --- |
| 16000 | O=S(=O)(NCCNCc1cccc2ccccc12)c1cc(C(F)(F)F)cc(C(F)(F)F)c1 |
| 2800 | O=S(=O)(NCCCNCc1ccc(Cl)cc1)c1cc(C(F)(F)F)cc(C(F)(F)F)c1 |
| 2200 | O=S(=O)(NCCCNCC1COc2ccccc2O1)c1cc(C(F)(F)F)cc(C(F)(F)F)c1 (configuration not stated) |
| 2600 | O=S(=O)(NCCCNCc1cccc2ccccc12)c1cc(C(F)(F)F)cc(C(F)(F)F)c1 |

test system: MCF7; assay: Growth inhibition of human MCF7 cells incubated for 72 hrs by MTT assay; assay type: functional

| Structure (SMILES) | GI50 [nM] |
| --- | --- |
| O=S(=O)(NCCCNCc1cccc(Cl)c1)c1cc(C(F)(F)F)cc(C(F)(F)F)c1 | 2600 |
| O=S(=O)(NCCCNCc1ccc(Cl)c(Cl)c1)c1cc(C(F)(F)F)cc(C(F)(F)F)c1 | 2400 |
| COc1ccc(CNCCCNS(=O)(=O)c2cc(C(F)(F)F)cc(C(F)(F)F)c2)cc1 | 2500 |

Other lines, results leading:

| GI50 [nM] | Structure (SMILES) |
| --- | --- |
| 18000 | O=S(=O)(NCCNCc1cccc2ccccc12)c1cc(C(F)(F)F)cc(C(F)(F)F)c1 |
| 2400 | O=S(=O)(NCCCNCc1ccc(Cl)cc1)c1cc(C(F)(F)F)cc(C(F)(F)F)c1 |
| 2500 | O=S(=O)(NCCCNCC1COc2ccccc2O1)c1cc(C(F)(F)F)cc(C(F)(F)F)c1 (configuration not stated) |
| 1400 | O=S(=O)(NCCCNCc1cccc2ccccc12)c1cc(C(F)(F)F)cc(C(F)(F)F)c1 |

test system: A2780; assay: Growth inhibition of human A2780 cells incubated for 72 hrs by MTT assay; assay type: functional

| Structure (SMILES) | GI50 [nM] |
| --- | --- |
| O=S(=O)(NCCCNCc1cccc(Cl)c1)c1cc(C(F)(F)F)cc(C(F)(F)F)c1 | 2200 |
| O=S(=O)(NCCCNCc1ccc(Cl)c(Cl)c1)c1cc(C(F)(F)F)cc(C(F)(F)F)c1 | 1500 |
| COc1ccc(CNCCCNS(=O)(=O)c2cc(C(F)(F)F)cc(C(F)(F)F)c2)cc1 | 1700 |

Further lines, results first:

| GI50 [nM] | Structure (SMILES) |
| --- | --- |
| 21000 | O=S(=O)(NCCNCc1cccc2ccccc12)c1cc(C(F)(F)F)cc(C(F)(F)F)c1 |
| 1800 | O=S(=O)(NCCCNCc1ccc(Cl)cc1)c1cc(C(F)(F)F)cc(C(F)(F)F)c1 |
| 1500 | O=S(=O)(NCCCNCC1COc2ccccc2O1)c1cc(C(F)(F)F)cc(C(F)(F)F)c1 (configuration not stated) |
| 3100 | O=S(=O)(NCCCNCc1cccc2ccccc12)c1cc(C(F)(F)F)cc(C(F)(F)F)c1 |

test system: BE(2)-C; assay: Growth inhibition of human BE2C cells incubated for 72 hrs by MTT assay; assay type: functional

| Structure (SMILES) | GI50 [nM] |
| --- | --- |
| O=S(=O)(NCCNCc1cccc2ccccc12)c1cc(C(F)(F)F)cc(C(F)(F)F)c1 | 19000 |
| O=S(=O)(NCCCNCc1cccc(Cl)c1)c1cc(C(F)(F)F)cc(C(F)(F)F)c1 | 6900 |
| O=S(=O)(NCCCNCc1ccc(Cl)cc1)c1cc(C(F)(F)F)cc(C(F)(F)F)c1 | 2900 |
| O=S(=O)(NCCCNCc1ccc(Cl)c(Cl)c1)c1cc(C(F)(F)F)cc(C(F)(F)F)c1 | 2900 |
| COc1ccc(CNCCCNS(=O)(=O)c2cc(C(F)(F)F)cc(C(F)(F)F)c2)cc1 | 2800 |
| O=S(=O)(NCCCNCC1COc2ccccc2O1)c1cc(C(F)(F)F)cc(C(F)(F)F)c1 (configuration not stated) | 2800 |
| O=S(=O)(NCCCNCc1cccc2ccccc12)c1cc(C(F)(F)F)cc(C(F)(F)F)c1 | 2700 |

test system: not listed separately; assay: Growth inhibition of human MCF-10A cells incubated for 72 hrs by MTT assay; assay type: toxicity, cell-based

| Structure (SMILES) | GI50 at 72 h [µM] |
| --- | --- |
| O=S(=O)(NCCNCc1cccc2ccccc12)c1cc(C(F)(F)F)cc(C(F)(F)F)c1 | 22 |
| O=S(=O)(NCCCNCc1cccc(Cl)c1)c1cc(C(F)(F)F)cc(C(F)(F)F)c1 | 7 |
| O=S(=O)(NCCCNCc1ccc(Cl)cc1)c1cc(C(F)(F)F)cc(C(F)(F)F)c1 | 2.3 |
| O=S(=O)(NCCCNCc1ccc(Cl)c(Cl)c1)c1cc(C(F)(F)F)cc(C(F)(F)F)c1 | 3 |
| COc1ccc(CNCCCNS(=O)(=O)c2cc(C(F)(F)F)cc(C(F)(F)F)c2)cc1 | 3.1 |
| O=S(=O)(NCCCNCC1COc2ccccc2O1)c1cc(C(F)(F)F)cc(C(F)(F)F)c1 (configuration not stated) | 3.2 |
| O=S(=O)(NCCCNCc1cccc2ccccc12)c1cc(C(F)(F)F)cc(C(F)(F)F)c1 | 3.2 |

test system: ASPC1; assay: Growth inhibition of human ASPC1 cells incubated for 72 hrs by MTT assay; assay type: functional

| Structure (SMILES) | GI50 [nM] |
| --- | --- |
| O=S(=O)(NCCCNCc1cccc(Cl)c1)c1cc(C(F)(F)F)cc(C(F)(F)F)c1 | 5900 |
| O=S(=O)(NCCCNCc1ccc(Cl)c(Cl)c1)c1cc(C(F)(F)F)cc(C(F)(F)F)c1 | 2800 |
| COc1ccc(CNCCCNS(=O)(=O)c2cc(C(F)(F)F)cc(C(F)(F)F)c2)cc1 | 2800 |

Further lines, results first:

| GI50 [nM] | Structure (SMILES) |
| --- | --- |
| 22000 | O=S(=O)(NCCNCc1cccc2ccccc12)c1cc(C(F)(F)F)cc(C(F)(F)F)c1 |
| 3000 | O=S(=O)(NCCCNCc1ccc(Cl)cc1)c1cc(C(F)(F)F)cc(C(F)(F)F)c1 |
| 2900 | O=S(=O)(NCCCNCC1COc2ccccc2O1)c1cc(C(F)(F)F)cc(C(F)(F)F)c1 (configuration not stated) |
| 21000 | O=S(=O)(NCCCNCc1cccc2ccccc12)c1cc(C(F)(F)F)cc(C(F)(F)F)c1 |

test system: BXPC-3; assay: Growth inhibition of human BXPC-3 cells incubated for 72 hrs by MTT assay; assay type: functional

| Structure (SMILES) | GI50 [nM] |
| --- | --- |
| O=S(=O)(NCCCNCc1cccc(Cl)c1)c1cc(C(F)(F)F)cc(C(F)(F)F)c1 | 3800 |
| O=S(=O)(NCCCNCc1ccc(Cl)c(Cl)c1)c1cc(C(F)(F)F)cc(C(F)(F)F)c1 | 1400 |
| COc1ccc(CNCCCNS(=O)(=O)c2cc(C(F)(F)F)cc(C(F)(F)F)c2)cc1 | 1300 |

Results, then the compound that gave them:

| GI50 [nM] | Structure (SMILES) |
| --- | --- |
| 23000 | O=S(=O)(NCCNCc1cccc2ccccc12)c1cc(C(F)(F)F)cc(C(F)(F)F)c1 |
| 1600 | O=S(=O)(NCCCNCc1ccc(Cl)cc1)c1cc(C(F)(F)F)cc(C(F)(F)F)c1 |
| 1200 | O=S(=O)(NCCCNCC1COc2ccccc2O1)c1cc(C(F)(F)F)cc(C(F)(F)F)c1 (configuration not stated) |
| 2700 | O=S(=O)(NCCCNCc1cccc2ccccc12)c1cc(C(F)(F)F)cc(C(F)(F)F)c1 |

test system: Capan-2; assay: Growth inhibition of human Capan-2 cells incubated for 72 hrs by MTT assay; assay type: functional

| Structure (SMILES) | GI50 [nM] |
| --- | --- |
| O=S(=O)(NCCNCc1cccc2ccccc12)c1cc(C(F)(F)F)cc(C(F)(F)F)c1 | 21000 |
| O=S(=O)(NCCCNCc1cccc(Cl)c1)c1cc(C(F)(F)F)cc(C(F)(F)F)c1 | 8000 |
| O=S(=O)(NCCCNCc1ccc(Cl)cc1)c1cc(C(F)(F)F)cc(C(F)(F)F)c1 | 2700 |
| O=S(=O)(NCCCNCc1ccc(Cl)c(Cl)c1)c1cc(C(F)(F)F)cc(C(F)(F)F)c1 | 1800 |
| COc1ccc(CNCCCNS(=O)(=O)c2cc(C(F)(F)F)cc(C(F)(F)F)c2)cc1 | 2400 |
| O=S(=O)(NCCCNCC1COc2ccccc2O1)c1cc(C(F)(F)F)cc(C(F)(F)F)c1 (configuration not stated) | 2500 |
| O=S(=O)(NCCCNCc1cccc2ccccc12)c1cc(C(F)(F)F)cc(C(F)(F)F)c1 | 2700 |

test system: HPAC; assay: Growth inhibition of human HPAC cells incubated for 72 hrs by MTT assay; assay type: functional

| Structure (SMILES) | GI50 [nM] |
| --- | --- |
| O=S(=O)(NCCNCc1cccc2ccccc12)c1cc(C(F)(F)F)cc(C(F)(F)F)c1 | 18000 |
| O=S(=O)(NCCCNCc1cccc(Cl)c1)c1cc(C(F)(F)F)cc(C(F)(F)F)c1 | 2700 |
| O=S(=O)(NCCCNCc1ccc(Cl)cc1)c1cc(C(F)(F)F)cc(C(F)(F)F)c1 | 2800 |
| O=S(=O)(NCCCNCc1ccc(Cl)c(Cl)c1)c1cc(C(F)(F)F)cc(C(F)(F)F)c1 | 2500 |
| COc1ccc(CNCCCNS(=O)(=O)c2cc(C(F)(F)F)cc(C(F)(F)F)c2)cc1 | 3000 |
| O=S(=O)(NCCCNCC1COc2ccccc2O1)c1cc(C(F)(F)F)cc(C(F)(F)F)c1 (configuration not stated) | 2700 |
| O=S(=O)(NCCCNCc1cccc2ccccc12)c1cc(C(F)(F)F)cc(C(F)(F)F)c1 | 2400 |

test system: PANC-1; assay: Growth inhibition of human PANC-1 cells incubated for 72 hrs by MTT assay; assay type: functional

| Structure (SMILES) | GI50 [µM] |
| --- | --- |
| O=S(=O)(NCCCNCc1cccc(Cl)c1)c1cc(C(F)(F)F)cc(C(F)(F)F)c1 | 12 |
| O=S(=O)(NCCCNCc1ccc(Cl)c(Cl)c1)c1cc(C(F)(F)F)cc(C(F)(F)F)c1 | 5.6 |
| COc1ccc(CNCCCNS(=O)(=O)c2cc(C(F)(F)F)cc(C(F)(F)F)c2)cc1 | 11 |

The next lines start with the values.

| GI50 [µM] | Structure (SMILES) |
| --- | --- |
| 24 | O=S(=O)(NCCNCc1cccc2ccccc12)c1cc(C(F)(F)F)cc(C(F)(F)F)c1 |
| 4.9 | O=S(=O)(NCCCNCc1ccc(Cl)cc1)c1cc(C(F)(F)F)cc(C(F)(F)F)c1 |
| 3.4 | O=S(=O)(NCCCNCC1COc2ccccc2O1)c1cc(C(F)(F)F)cc(C(F)(F)F)c1 (configuration not stated) |
| 2.7 | O=S(=O)(NCCCNCc1cccc2ccccc12)c1cc(C(F)(F)F)cc(C(F)(F)F)c1 |
